The text below walks through data of US20020045664A1, “Estrogen mimetics lacking reproductive tract effects” (The University of Georgia Research Foundation, Inc, priority 1999, published 2002).

Assay [1] relates to mouse uterus (uterine weight gain). Particulars: dose at which uterine weight gain was 50% maximal; cited from earlier work.
The subject of assay [2] is rat uterus (uterine weight gain). Further details: Rat Uterotrophic Assay % Efficacy: concentration or dose not given beside the values. Particulars: cited from earlier work; for Rat Uterotrophic Assay % Efficacy: in vivo; for Rat Uterotrophic Assay ED50: dose at which uterine weight gain was 50% maximal.
In another assay the test system is MCF-7 cells. To be noted: cited from earlier work; for EC50: concentration at which growth stimulation was 50% maximal, read-out: MCF-7 Cell Growth EC50.
For assay [3], the system named is OVX rat. Description: OVX rat: cancellous bone histomorphometry, proximal tibial metaphysis. Particulars: OVX rats; for osteoblast surface: 35 days after surgery; for Mineral apposition rate (MAR): 35 days postsurgery. The class given is in vivo. Here is the method:
(§1) In the first experiment 50 female Sprague-Dawley rats that were approximately 90 days of age and weighed an average of 240 g at the beginning of the study were used. Animal care and handling was carried out solely at the AAALAC accredited animal facility at the University of Georgia College of Pharmacy, in accordance with a protocol approved by the University of Georgia Institutional Animal Care and Use Committee. On the day of surgery (day 0), all rats were anesthetized with an intraperitoneal (i.p.) injection of ketamine hydrochloride and xylazine at doses of 50 mg/kg body weight and 10 mg/kg body weight, respectively. Ten rats were sham-operated during which the ovaries were exteriorized but replaced intact. Bilateral ovariectomies were performed in the remaining 40 rats from a dorsal approach. Each rat was housed individually at 25° C. with a light/dark cycle of 13 hours/11 hours. Food (Teklad 22/5 Rodent Diet, Madison, Wis.), with calcium and phosphate contents of 0.95% and 0.67%, respectively, was available ad libitum to all animals.
(§2) Sham-operated rats (N=10) and one of the four groups of OVX rats (N=10) were injected subcutaneously (s.c.) with vehicle (5% benzyl alcohol in corn oil) 5 days per week for 5 weeks. […] The above treatments were initiated on the first day after surgery. The dose level of 17β-estradiol was believed to be optimal based on earlier studies (T. Wronski et al., Endocrinology 123:681-686 (1988)). […] Each rat was injected s.c. with demeclocycline and calcein (Sigma Chemical Co., St. Louis, Mo.) at a dose of 15 mg/kg body weight on the 10th and 3rd days before sacrifice, respectively, to label sites of bone formation.
(§3) A second experiment, using 40 animals, was performed in exactly the same manner described above, in which effects of the s.c. administration of 3.7 mg/kg/day of 4HTA to one group of OVX animals was compared to the effects of vehicle or 17β-estradiol in three other groups (vehicle treated sham OVX, vehicle treated OVX, and 17β-estradiol-treated OVX rats).
The proximal halves of the tibiae were dehydrated by immersion in ethanol, and embedded undecalcified in methyl methacrylate. Longitudinal sections (4- and 8-μm thick) were cut with AO Autocut/Jung 1150 or 2050 microtomes. The 4-μm thick sections were stained according to the Von Kossa method with a tetrachrome counterstain (Polysciences Inc., Warrington, Pa.). Bone measurements were performed in cancellous bone tissue of the proximal tibial metaphysis beginning at distances 1 mm distal to the growth plate-metaphyseal junction to exclude the primary spongiosa. In general, two sections of the proximal tibia, with a total of 40-50 mm of cancellous bone perimeter, were sampled in each animal with an appreciable amount of cancellous bone. Additional sections were sampled in osteopenic animals to approximate the cancellous bone perimeter sampled in animals with greater cancellous bone mass.
Bone measurements were performed with the Bioquant Bone Morphometry System (R&M Biometrics Corp., Nashville, Tenn.) as described in T. Wronski et al. (Calcif. Tissue Int. 53:210-216 (1993)). Cancellous bone volume as a percentage of bone tissue area and osteoblast and osteoclast surfaces as percentages of total cancellous perimeter were measured in 4-μm thick, stained sections.
Fluorochrome-based indices of bone formation were measured in unstained, 8-μm-thick sections of the proximal tibial metaphysis. The percentage of cancellous bone surface with a double fluorochrome label (mineralizing surface) and mineral apposition rate were measured with the Bioquant system. In addition, bone formation rate (tissue level, total surface referent) was calculated by multiplying mineralizing surface by mineral apposition rate (H. Frost, Bone histomorphometry: analysis of trabecular bone dynamics. In: Recker R. R., Ed. Bone Histomorphometry: Techniques and Interpretation. Boca Raton, Fla.: CRC Press; 1983; 109-132).

The test system of assay [4] is OVX rat. Description: OVX rat: cortical bone histomorphometry, tibial diaphysis. The format is in vivo. To be noted: OVX rats. Here is the method:
In the first experiment 50 female Sprague-Dawley rats that were approximately 90 days of age and weighed an average of 240 g at the beginning of the study were used. Animal care and handling was carried out solely at the AAALAC accredited animal facility at the University of Georgia College of Pharmacy, in accordance with a protocol approved by the University of Georgia Institutional Animal Care and Use Committee. On the day of surgery (day 0), all rats were anesthetized with an intraperitoneal (i.p.) injection of ketamine hydrochloride and xylazine at doses of 50 mg/kg body weight and 10 mg/kg body weight, respectively. […]
Bone measurements were performed with the Bioquant Bone Morphometry System (R&M Biometrics Corp., Nashville, Tenn.). Cortical bone tissue area and bone marrow area were measured in one section per animal at a magnification of 20×. Cortical bone area was calculated by subtracting marrow area from cortical bone tissue area. Cortical width was measured from the periosteal to the endocortical surfaces at four equally spaced sites at the anterior (cranial), posterior (caudal), medial, and lateral aspects of each cross-section. […]
Fluorochrome-based indices of bone formation were measured under UV illumination at magnifications of 100× and 200× for mineralizing surface and mineral apposition rate, respectively. […]

Assay [5] relates to OVX rat. Put plainly: Serum cholesterol in OVX rats. The format is in vivo. Particulars: for Serum Cholesterol, mean (SD): experiment 1. Here is the method: as §1, §2
All rats were sacrificed by exsanguination from the abdominal aorta under ketamine/xylazine anesthesia. Failure to detect ovarian tissue and observation of marked atrophy of the uterine horns confirmed the success of ovariectomy. The body weight of each animal was recorded, as was uterine wet weight. […] Serum was obtained by centrifugation for 10 minutes at 3000 rpm, and samples were stored at −80° C. until analyzed. […]

Assay [6] concerns OVX rat. Description: Serum rat osteocalcin radioimmunoassay in OVX rats. To be noted: for increase in serum OC: OVX animals, with respect to OVX vehicle controls; for Relative Serum OC Level, mean (SD): relative to OVX-17β-estradiol treated group (=100). The format is in vivo. Here is the method:
as §1, §2, §3
(§4) All rats were sacrificed by exsanguination from the abdominal aorta under ketamine/xylazine anesthesia. Failure to detect ovarian tissue and observation of marked atrophy of the uterine horns confirmed the success of ovariectomy. The body weight of each animal was recorded, as was uterine wet weight. Blood samples were allowed to coagulate at room temperature (2 hours) in a Vacutainer tube. Serum was obtained by centrifugation for 10 minutes at 3000 rpm, and samples were stored at −80° C. until analyzed. The right tibia was removed at necropsy, dissected free of muscle, and cut in half cross-sectionally with a hand-held saw (Dremel Moto Tool, Racine, Wis.). The bone samples were then placed in 10% phosphate-buffered formalin for 24 hours for tissue fixation.
Materials, as well as standard protocols for their use, were obtained from Biomedical Technologies, Inc., Stoughton Mass. Serum samples from each member of the different treatment groups were diluted 1:20. Duplicate aliquots (100 μL) of each diluted sample were incubated in an orbital shaker at 80 rpm ([…]) for 16 hours with the first antibody and nonimmune serum in RIA buffer (final volume 0.5 mL). An aliquot of [^125I]-osteocalcin (10 nCi, 0.034 ng) in 100 μL of RIA buffer was then added to each tube and incubation was continued for 24 hours. Then the second (precipitating) antibody was added in 1 mL of modified buffer, and incubation was continued for 4 hours. Tubes were then centrifuged at 1500×g for 15 minutes. Pellets were washed with cold distilled water and recentrifuged as before. Supernatant was decanted and radioactivity in pellets was determined using a gamma counter. Serum osteocalcin levels were determined by comparing the sample values (cpm) to the linear region of a standard curve of cpm/pellet vs. the amount of osteocalcin present, obtained from incubations to which known amounts (0-0.35 ng) of osteocalcin had been added. […]

In assay [7] the test system is OVX rat. Description: OVX rat: body weight and uterine wet weight. The class given is in vivo. To be noted: for greater uterine weight compared to vehicle-treated OVX animals: 17β-estradiol: average of both experiments, 4HTA: vs respective OVX vehicle controls; for Uterine Weight, mean (SD) / Body Weight, mean (SD): OVX rats, 17β-estradiol 10 μg/kg/day; for Uterine Weight, mean (SD): s.c. 5 weeks; for Body Weight, mean (SD): s.c. 5 days/week for 5 weeks; for increase in overall body weight after ovariectomy: five-week course of the two studies, subcutaneous five days per week. Here is the method:
as §1, §2, §3, §4

The subject of assay [8] is MCF 7 human breast cancer cells. To be noted: estradiol-stimulated MCF-7 proliferation; cited from earlier work.
Assay [9] relates to OVX rat. Description: OVX rat: body weight and uterine wet weight. The format is in vivo.
Setting [10] is: experiment 1, HPPA 3.6 mg/kg/day.
Setting [11] is: experiment 2, 4HTA 3.7 mg/kg/day.

“Also recorded” adds a separate entry of the source. Marks after values point to notes of the source that are not given here.

In the case of `COc1ccc(C(Cl)=C(c2ccc(OC)cc2)c2ccc(OC)cc2)cc1` [chlorotrianisene], the “Uterotrophic Assay ED50, determined in the mouse” value in assay [1] is listed as 40^c μg/day. Besides, the “Rat Uterotrophic Assay % Efficacy” value in assay [2] is 100%. For the same molecule, in the assay on MCF-7 cells, the “MCF-7 Cell Growth % Efficacy” value was 89% and the EC50 (in general, the midpoint of the concentration-response curve) is 28 nM.
Take `C[C@]12CC[C@@H]3c4ccc(O)cc4CC[C@H]3[C@@H]1CC[C@@H]2O` [17β-estradiol]: in the assay with OVX rat [3] (experiment 1), the osteoblast surface result is listed as “suppressed at the control level” and the “Mineral apposition rate (MAR)” value was “maintained at the control level”. In the assay with OVX rat [3] (experiment 1, vs vehicle-treated control rats), the “mineralizing surface (cancellous)” value is listed as “significantly lower”. Besides, in the assay on OVX rat [3] (second experiment, mean ±SD), the cancellous bone volume is 24.0±5.5%. Further, the “periosteal bone formation rate” value in the assay on OVX rat [4] is recorded as “inhibited periosteal bone formation rate to a level below that of vehicle-treated control rats”. In addition, the “Serum Cholesterol, mean (SD)” value with OVX rat [5] is reported as 80 (3.5)^c mg/dL. Also, in [2], the “Rat Uterotrophic Assay ED50” value is 0.16 µg/day and the “Rat Uterotrophic Assay % Efficacy” value is 100%. In the assay with MCF-7 cells, the “MCF-7 Cell Growth % Efficacy” value is recorded as 100% and the EC50 was 0.02 nM. The “increase in serum OC” value with OVX rat [6] is given as “prevented this increase”. Besides, the “Relative Serum OC Level, mean (SD)” value in the assay on OVX rat [6] (experiment 1) is 100 (33)^b. Further, the “Relative Serum OC Level, mean (SD)” value in the assay on OVX rat [6] (experiment 2) is 100 (16)^b. In the assay on OVX rat [7], the “greater uterine weight compared to vehicle-treated OVX animals” value was 167% and the “increase in overall body weight after ovariectomy” value was “not observed”. In the assay on OVX rat [7] (setting [10]), the “Uterine Weight, mean (SD)” value is 269 (48)^b,c mg and the “Body Weight, mean (SD)” value is reported as 310 (24)^b g. For the same molecule, in the assay on OVX rat [7] (setting [11]), the “Uterine Weight, mean (SD)” value is 225 (30)^b,c mg and the “Body Weight, mean (SD)” value is 303 (12)^b g.
For `CC/C(=C(/c1ccccc1)c1ccc(OCCN(C)C)cc1)c1ccccc1` [cis-tamoxifen], in assay [2], the “Rat Uterotrophic Assay ED50” value was 40 µg/day and the “Rat Uterotrophic Assay % Efficacy” value is given as 52%. Moreover, the “MCF-7 Cell Growth % Efficacy” value with MCF-7 cells is reported as 100%.
In the case of `CC/C(=C(\c1ccccc1)c1ccc(OCCN(C)C)cc1)c1ccccc1` [trans-tamoxifen, (Z)-2-[4-(1,2-diphenyl-1-butenyl)phenoxy]-N,N-dimethylethanamine], in [2], the “Rat Uterotrophic Assay ED50” value was 10 µg/day and the “Rat Uterotrophic Assay % Efficacy” value is given as 12%. Besides, the “MCF-7 Cell Growth % Efficacy” value in the assay with MCF-7 cells was 21%.
As to `CC/C(=C(/CC)c1ccc(O)cc1)c1ccc(O)cc1` [diethylstilbestrol], the “Uterotrophic Assay ED50, determined in the mouse” value in [1] is recorded as 3^c μg/day. Moreover, in [2], the “Rat Uterotrophic Assay % Efficacy” value was 100%. In addition, in the assay with MCF-7 cells, the “MCF-7 Cell Growth % Efficacy” value was 100%.
On to `O=C(O)COc1ccc(C(Cc2ccccc2)c2ccc(O)cc2)cc1` (centres unmarked) [HPPA, 4-[1-(4-hydroxyphenyl)-2-phenylethyl]phenoxyacetic acid], for which, in the assay with OVX rat [3] (experiment 1), the osteoblast surface entry is reported as “partially suppressed” and the “Mineral apposition rate (MAR)” value is “no effect”. Also, the “periosteal bone formation rate” value in the assay with OVX rat [4] is “did not inhibit”. In addition, in the assay on OVX rat [5] (10 μmol/kg sc), the “reduction in serum cholesterol with respect to vehicle-treated OVX animals” value was found to be 10%. Also, the “Serum Cholesterol, mean (SD)” value in the assay on OVX rat [5] is reported as 72 (1.9)^b,c,d mg/dL. Besides, the “estrogen antagonist activity in growth inhibition assay in the presence of estrogen” value in assay [8] is listed as “did not function as an estrogen antagonist; also recorded: no activity as an antiestrogen”. The “maximal growth-stimulatory effect, as a percent of that of estradiol” value with MCF-7 cells (MCF-7 cell proliferation assay) is 102%. Besides, in the assay on MCF-7 cells, the “MCF-7 Cell Growth % Efficacy” value is given as 100% and the EC50 was 16 nM. In addition, in the assay on OVX rat [6], the “increase in serum OC” value is recorded as 34%. For the same molecule, in the assay with OVX rat [7], the “greater uterine weight compared to vehicle-treated OVX animals” value is given as “did not differ appreciably” and the “increase in overall body weight after ovariectomy” value was “not observed”. In addition, in the assay with OVX rat [7] (setting [10]), the “Body Weight, mean (SD)” value is 342 (23)^b,c g. Besides, the “Rat Uterotrophic Assay ED50 (HPPA, Ex. III)” value in the assay on OVX rat [9] (s.c.) was more than 3400 µg/day. Further, in the assay on OVX rat [9] (sc, read-out: Rat Uterotrophic Assay % Efficacy (HPPA), s.c., Ex. III), the Emax was 0%.
